Laboratory results reported in paper PMC6405874, “Development of a novel short 12-meric papiliocin-derived peptide that is effective against Gram-negative sepsis” (Scientific Reports, 2019).
No end group written: not given here.

How the values were obtained:
[1] = test system: MDRST 8007 (MDR S. typhimurium CCARM 8007); settings: 1% peptone, 2 × 10^6 CFU/mL, 16 h, 37 °C
Description: (§1) The antimicrobial activities of Pap12 peptides were tested against four standard Gram-negative bacteria (E. coli, Pseudomonas aeruginosa, Acinetobacter baumannii, and Salmonella typhimurium), three standard Gram-positive bacteria (Staphylococcus aureus, Bacillus subtilis, and Staphylococcus epidermidis), and five MDR bacteria (MDREC CCARM 1229, MDRPA CCARM 2002, MDRAB CCARM 12035, MDRST CCARM 8007, and MRSA CCARM 3126) using the microbroth dilution method. The relative antibacterial activities were compared based on geometric means of MICs (GM).
(§2) Escherichia coli (KCTC 1682), Pseudomonas aeruginosa (KCTC 2004), Acinetobacter baumannii (KCTC 2508), Salmonella typhimurium (KCTC 1926), Bacillus subtilis (KCTC 3068), Staphylococcus aureus (KCTC 1621), and Staphylococcus epidermidis (KCTC 1917) were purchased from the Korean Collection for Type Cultures, Korea Research Institute of Bioscience & Biotechnology (Taejon, Korea). Clinical isolates of MDR E. coli (MDREC; CCARM 1229), P. aeruginosa (MDRPA; CCARM 2002), A. baumannii (MDRAB; CCARM 12035), S. typhimurium (MDRST; CCARM 8007), and S. aureus (MDRSA; CCARM 3126) were supplied by the Culture Collection of Antibiotic-Resistant Microbe (CCARM) at Seoul Women’s University in Korea. The E. coli K1 strain RS218 (O18:K1:H7) was kindly provided by Dr. Jang-Won Yoon of Kangwon National University (Gangwon-do, Korea).
(§3) Peptides were treated with 2 × 10^6 CFU/mL bacterial suspensions in 1% peptone media for 16 h at 37 °C.

[2] = test system: S. typhimurium (KCTC 1926); settings: 1% peptone, 2 × 10^6 CFU/mL, 16 h, 37 °C
Description: as §1, §2, §3

[3] = test system: S. epidermidis (KCTC 1917); settings: 1% peptone, 2 × 10^6 CFU/mL, 16 h, 37 °C
Description: as §1, §2, §3

B. subtilis (KCTC 3068) = settings: 1% peptone, 2 × 10^6 CFU/mL, 16 h, 37 °C
Description: as §1, §2, §3

MRSA 3126 (CCARM 3126) = settings: 1% peptone, 2 × 10^6 CFU/mL, 16 h, 37 °C
Description: as §1, §2, §3

[4] = test system: MDRAB 12035 (MDR A. baumannii CCARM 12035); settings: 1% peptone, 2 × 10^6 CFU/mL, 16 h, 37 °C
Description: as §1, §2, §3

[5] = test system: P. aeruginosa (KCTC 2004); settings: 1% peptone, 2 × 10^6 CFU/mL, 16 h, 37 °C
Description: as §1, §2, §3

[6] = test system: MDREC 1229 (MDR E. coli CCARM 1229); settings: 1% peptone, 2 × 10^6 CFU/mL, 16 h, 37 °C
Description: as §1, §2, §3

S. aureus (KCTC 1621) = settings: 1% peptone, 2 × 10^6 CFU/mL, 16 h, 37 °C
Description: as §1, §2, §3

A. baumannii (KCTC 2508) = settings: 1% peptone, 2 × 10^6 CFU/mL, 16 h, 37 °C
Description: as §1, §2, §3

[7] = test system: MDRPA 2002 (MDR P. aeruginosa CCARM 2002); settings: 1% peptone, 2 × 10^6 CFU/mL, 16 h, 37 °C
Description: as §1, §2, §3

E. coli (KCTC 1682) = settings: 1% peptone, 2 × 10^6 CFU/mL, 16 h, 37 °C
Description: as §1, §2, §3

Gram-negative bacteria = settings: eight Gram-negative strains of Table 2
Description: as §1
(§4) The therapeutic index (TI) was calculated (Table 2) using HC10, the peptide concentration required to induce 10% hemolysis.
as §3

Gram-positive bacteria = settings: four Gram-positive strains of Table 2
Description: as §1, §4, §3

[8] = test system: human red blood cells (hRBCs); experiment: Hemolysis of human red blood cells
Description: as §4
The toxicity of peptides to human red blood cells (hRBCs) was determined by measuring the peptide-induced release of haem, and percent hemolysis was calculated as described previously. The peptide-induced cytotoxicity of mouse RAW 264.7 macrophages, human keratinocyte HaCaT cells, and HEK-293 cells were determined by 3-(4,5-dimethylthiazol-2-yl)-2,5-diphenyltetrazolium bromide (MTT) assays as previously described.

[9] = Survival of non-infected mice given peptide (acute toxicity); format: in vivo, BALB/c mice; settings: 10 mg/kg i.p., over 4 days, 10 mice
Description: To determine the in vivo survival rate, four groups were established with 10 BALB/c mice per group. For the control group, 10 mice were given an intraperitoneal (i.p.) injection with PBS. […] In the third group, 10 mice were i.p. injected with Pap12-6 (10 mg/kg). […] Survival was evaluated for 4 days (0, 6, 12, 18, 24, 30, 36, 48, 60, 72, 84, and 96 h).

[10] = test system: human keratinocyte HaCaT cells; experiment: MTT cytotoxicity; format: cell-based; settings: 50 µM
Description: (§5) The toxicities of peptides against mammalian cells were checked by measuring the survival rate of mouse macrophage RAW 264.7 cells, human keratinocyte HaCaT cells, and HEK-293 human embryonic kidney epithelial (HEK-293) cells after treatment with different concentrations of peptides (Fig. 2B–D). […] Since melittin has higher hydrophobicity and a […] amphiphatic moment (µH) than those of Pap12 peptides, as listed in Table 1, its toxicity is much higher than those of Pap12 peptides.

[11] = test system: HEK-293 human embryonic kidney epithelial cells; experiment: MTT cytotoxicity; format: cell-based; settings: HEK-293, MTT, 50 µM
Description: as §5

[12] = test system: mouse macrophage RAW 264.7 cells; experiment: MTT cytotoxicity; format: cell-based; settings: RAW 264.7, MTT
Description: as §5

**Q.** For RWKIFKKIEKVG-NH2 [Pap12-1], which “Minimal inhibitory concentration (MIC), MDRST 8007” value [1] is on record?
**A.** 32 µM

**Q.** And the “Minimal inhibitory concentration (MIC), S. typhimurium” value [2]?
**A.** 64 µM

**Q.** And the “Minimal inhibitory concentration (MIC), S. epidermidis” value [3]?
**A.** 64 µM

**Q.** And the “Minimal inhibitory concentration (MIC), B. subtilis” value (B. subtilis (KCTC 3068))?
**A.** 64 µM

**Q.** What about the “Minimal inhibitory concentration (MIC), MRSA 3126” value (MRSA 3126 (CCARM 3126)) of the same substance?
**A.** 64 µM

**Q.** What about the “Minimal inhibitory concentration (MIC), MDRAB 12035” value [4] of the same substance?
**A.** 16 µM

**Q.** What about the “Minimal inhibitory concentration (MIC), P. aeruginosa” value [5] of the same substance?
**A.** 8 µM

**Q.** What about the “Minimal inhibitory concentration (MIC), MDREC 1229” value [6] of the same substance?
**A.** 64 µM

**Q.** What about the “Minimal inhibitory concentration (MIC), S. aureus” value (S. aureus (KCTC 1621)) of the same substance?
**A.** 16 µM

**Q.** And the “Minimal inhibitory concentration (MIC), A. baumannii” value (A. baumannii (KCTC 2508))?
**A.** 64 µM

**Q.** And the “Minimal inhibitory concentration (MIC), MDRPA 2002” value [7]?
**A.** 16 µM

**Q.** What about the “Minimal inhibitory concentration (MIC), E. coli” value (E. coli (KCTC 1682)) of the same substance?
**A.** 16 µM

**Q.** And the “GM, geometric mean of MICs, Gram-negative bacteria” value (“GM … Gram-negative bacteria” for short) (Gram-negative bacteria)?
**A.** 35 µM

**Q.** What about the “GM, geometric mean of MICs, Gram-positive bacteria” value (from here on “GM … Gram-positive bacteria”) (Gram-positive bacteria) of the same substance?
**A.** 52 µM

**Q.** And the “HC10, peptide concentration resulting in 10% hemolysis of fresh human erythrocytes” value [8]?
**A.** 200 µM

**Q.** Which “Minimal inhibitory concentration (MIC), MDRST 8007” value [1] does the source give for RWKIFKKVVKKA-NH2 [Pap12-5] here?
**A.** 16 µM

**Q.** What about the “Minimal inhibitory concentration (MIC), S. typhimurium” value [2] of the same substance?
**A.** 32 µM

**Q.** What about the “Minimal inhibitory concentration (MIC), S. epidermidis” value [3] of the same substance?
**A.** 16 µM

**Q.** What about the “Minimal inhibitory concentration (MIC), B. subtilis” value (B. subtilis (KCTC 3068)) of the same substance?
**A.** 16 µM

**Q.** And the “Minimal inhibitory concentration (MIC), MRSA 3126” value (MRSA 3126 (CCARM 3126))?
**A.** 16 µM

**Q.** What about the “Minimal inhibitory concentration (MIC), MDRAB 12035” value [4] of the same substance?
**A.** 8 µM

**Q.** And the “Minimal inhibitory concentration (MIC), P. aeruginosa” value [5]?
**A.** 8 µM

**Q.** What about the “Minimal inhibitory concentration (MIC), MDREC 1229” value [6] of the same substance?
**A.** 16 µM

**Q.** What about the “Minimal inhibitory concentration (MIC), S. aureus” value (S. aureus (KCTC 1621)) of the same substance?
**A.** 8 µM

**Q.** And the “Minimal inhibitory concentration (MIC), A. baumannii” value (A. baumannii (KCTC 2508))?
**A.** 8 µM

**Q.** What about the “Minimal inhibitory concentration (MIC), MDRPA 2002” value [7] of the same substance?
**A.** 16 µM

**Q.** What about the “Minimal inhibitory concentration (MIC), E. coli” value (E. coli (KCTC 1682)) of the same substance?
**A.** 8 µM

**Q.** And the “GM … Gram-negative bacteria” value (Gram-negative bacteria)?
**A.** 14 µM

**Q.** What about the “GM … Gram-positive bacteria” value (Gram-positive bacteria) of the same substance?
**A.** 14 µM

**Q.** And the “HC10, peptide concentration resulting in 10% hemolysis of fresh human erythrocytes” value [8]?
**A.** 200 µM

**Q.** For RWKIFKKVVKKG-NH2 [Pap12-3], which “Minimal inhibitory concentration (MIC), MDRST 8007” value [1] is on record?
**A.** 16 µM

**Q.** What about the “Minimal inhibitory concentration (MIC), S. typhimurium” value [2] of the same substance?
**A.** 16 µM

**Q.** And the “Minimal inhibitory concentration (MIC), S. epidermidis” value [3]?
**A.** 16 µM

**Q.** What about the “Minimal inhibitory concentration (MIC), B. subtilis” value (B. subtilis (KCTC 3068)) of the same substance?
**A.** 16 µM

**Q.** And the “Minimal inhibitory concentration (MIC), MRSA 3126” value (MRSA 3126 (CCARM 3126))?
**A.** 16 µM

**Q.** What about the “Minimal inhibitory concentration (MIC), MDRAB 12035” value [4] of the same substance?
**A.** 16 µM

**Q.** What about the “Minimal inhibitory concentration (MIC), P. aeruginosa” value [5] of the same substance?
**A.** 8 µM

**Q.** And the “Minimal inhibitory concentration (MIC), MDREC 1229” value [6]?
**A.** 16 µM

**Q.** What about the “Minimal inhibitory concentration (MIC), S. aureus” value (S. aureus (KCTC 1621)) of the same substance?
**A.** 8 µM

**Q.** And the “Minimal inhibitory concentration (MIC), A. baumannii” value (A. baumannii (KCTC 2508))?
**A.** 16 µM

**Q.** And the “Minimal inhibitory concentration (MIC), MDRPA 2002” value [7]?
**A.** 32 µM

**Q.** And the “Minimal inhibitory concentration (MIC), E. coli” value (E. coli (KCTC 1682))?
**A.** 8 µM

**Q.** And the “GM … Gram-negative bacteria” value (Gram-negative bacteria)?
**A.** 16 µM

**Q.** And the “GM … Gram-positive bacteria” value (Gram-positive bacteria)?
**A.** 14 µM

**Q.** What about the “HC10, peptide concentration resulting in 10% hemolysis of fresh human erythrocytes” value [8] of the same substance?
**A.** 200 µM

**Q.** What does the source list for RWKIFKKVVKKW-NH2 [Pap12-6]?
**A.** survival of non-infected mice (lack of acute toxicity) [9]: all mice survived; Minimal inhibitory concentration (MIC), MDRST 8007 [1]: 8 µM; Minimal inhibitory concentration (MIC), S. typhimurium [2]: 8 µM; Minimal inhibitory concentration (MIC), S. epidermidis [3]: 8 µM; Minimal inhibitory concentration (MIC), B. subtilis (B. subtilis (KCTC 3068)): 8 µM; Minimal inhibitory concentration (MIC), MRSA 3126 (MRSA 3126 (CCARM 3126)): 8 µM; Minimal inhibitory concentration (MIC), MDRAB 12035 [4]: 4 µM; Minimal inhibitory concentration (MIC), P. aeruginosa [5]: 4 µM; Minimal inhibitory concentration (MIC), MDREC 1229 [6]: 8 µM; Minimal inhibitory concentration (MIC), S. aureus (S. aureus (KCTC 1621)): 4 µM; Minimal inhibitory concentration (MIC), A. baumannii (A. baumannii (KCTC 2508)): 4 µM; Minimal inhibitory concentration (MIC), MDRPA 2002 [7]: 8 µM; Minimal inhibitory concentration (MIC), E. coli (E. coli (KCTC 1682)): 4 µM; GM, geometric mean of MICs, Gram-negative bacteria (Gram-negative bacteria): 6 µM; GM, geometric mean of MICs, Gram-positive bacteria (Gram-positive bacteria): 7 µM; HC10, peptide concentration resulting in 10% hemolysis of fresh human erythrocytes [8]: 100 µM; cytotoxicity (in words) [10]: no cytotoxicity; cytotoxicity (in words) [11]: no cytotoxicity; cell survival ([12]; 50 µM): 80%; cell survival ([12]; up to 25 µM): 100%
